Where “and” joins values, the source holds several entries; their conditions need not be identical. Equal entries are not always repeated.
Assays:
[1] = target: T1, serotonin receptor 5-HT2C (Homo sapiens, UniProt P28335); experiment: CEREP 5-HT2C (h) (agonist radioligand); type: binding; conditions: reference compound
T1 construct: purchased CEREP (contract assay) 0137, 1003
T1 sequence (P28335 33-458): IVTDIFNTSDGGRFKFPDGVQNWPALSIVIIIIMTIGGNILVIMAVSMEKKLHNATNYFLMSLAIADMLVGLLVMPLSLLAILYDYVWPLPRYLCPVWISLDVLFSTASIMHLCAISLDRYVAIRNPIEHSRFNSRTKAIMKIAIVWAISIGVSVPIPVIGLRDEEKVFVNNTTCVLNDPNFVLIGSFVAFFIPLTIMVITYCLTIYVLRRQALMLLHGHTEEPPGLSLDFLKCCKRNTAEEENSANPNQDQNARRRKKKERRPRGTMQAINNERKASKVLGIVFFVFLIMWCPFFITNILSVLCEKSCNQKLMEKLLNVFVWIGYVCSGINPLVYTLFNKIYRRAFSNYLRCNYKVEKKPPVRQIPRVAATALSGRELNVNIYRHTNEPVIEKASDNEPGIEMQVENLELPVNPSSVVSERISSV

[2] = system: adult rat lumbar DRG sensory neurons; experiment: Neurite outgrowth from cultured DRG neurons; type: cell-based; conditions: for effect of pre-treatment on BT13-stimulated neurite outgrowth: LY294002 50 μM; for effect of pre-treatment on BT13-stimulated neurite outgrowth / block of BT13-stimulated neurite outgrowth, maximum length, mean difference / block of BT13-stimulated neurite outgrowth, total length, mean difference: PD98059 50 μM, SU6656 2 μM; for block of BT13-stimulated neurite outgrowth, maximum length, mean difference / block of BT13-stimulated neurite outgrowth, total length, mean difference: pre-treatment with inhibitor: LY294002 50 μM
Protocol: Cultured lumbar DRG (L3–L5) neurons were prepared using a published method (O'Mullane et al., [2013]). After plating onto poly-L-ornithine (5 μg/ml)/laminin (5 μg/ml) coated coverslips for 1 h, DRG neurons were cultured for 24–30 h in fresh Neurobasal A/B27. GFLs, BT13, NGF, and vehicle control were added at the start of this period for a 24–30 h treatment, except when preceded by pre-treatment (1 h) with inhibitors (50 μM LY294002; 2 μM SU6656, […]; Biomol Research Laboratories, Plymouth Meeting, PA, USA). DRG neurons were then fixed (4% paraformaldehyde) and processed for immunocytochemistry with 1:200 Mouse anti-β III tubulin/AlexaFluor 594 (Sigma-Aldrich Cat# T8660 RRID:AB_477590) and 1:5,000 rabbit anti-calcitonin gene-related peptide/AlexaFluor 488 (Sigma-Aldrich Cat# C8198 RRID:AB_259091) and DAPI for nuclear staining (0.5 μg/ml, Molecular Probes). Image analysis of multichannel 12 bit Zeiss .ZVI or .TIF files (captured with a Zeiss Imager.M1/MRm camera/Zen software; Carl Zeiss Australia, North Ryde, NSW, Australia) was then performed by a researcher blinded to the experimental condition. Neurite initiation was measured by a single parameter (proportion of neurons with neurites longer than the soma diameter). Neurite elongation was measured by batch processing (HCA-Vision software; CSIRO Mathematical and Information Sciences, North Ryde, NSW, Australia) to obtain four parameters—Root number: number of primary neurites; Maximum length: length of longest neurite; Branch points: number of neurite branch points; and Total length: sum of neurite lengths (Kalous and Keast, [2010]; Kalous et al., [2012]). The number of neurons of each immunocytochemical class counted on each coverslip (technical replicates) was 50 for neurite initiation and 20 for neurite elongation. A minimum of three cultures from different rats (biological replicates) were analyzed for each treatment group.

[3] = target: T1, serotonin receptor 5-HT2C; experiment: CEREP 5-HT2C (h) (antagonist radioligand); type: binding; conditions: reference compound
[4] = system: rats with spinal nerve ligation (L5/L6); experiment: Spinal nerve ligation (Chung's) model of experimental neuropathy, von Frey test
[5] = target: neurotensin receptor NT; experiment: CEREP NT (non-selective; agonist radioligand); type: binding; conditions: reference compound, Cat. No. 0465
[6] = target: T2, GFRα1/RET (Homo sapiens, UniProt P07949); set-up: method as in Sidorova et al., 2010; conditions: GDNF in this assay, ref Sidorova et al., 2010, cited from earlier work
T2 construct: full-length human RET (long isoform) in pCR3.1; expressed in transfected cells; host or cells: MG87 murine fibroblasts (MG87RET + PathDetect Elk-1 + GFRα1)

[7] = system: dorsal root ganglia neurons of SNL rats; experiment: Immunohistochemistry of DRG neuronal markers in rats with spinal nerve ligation; type: in vivo, rat; conditions: IHC
From the text: DRGs from rats with spinal nerve ligation treated with BT13 or vehicle were embedded in paraffin and sectioned (7 μm thickness). Sections were deparaffinized, subjected to citrate or basic antigen-retrieval procedure and probed with IB4-Alexa 488 [1:200; IB4-Alexa488, Cat# IB4 (isolectin Griffonia simplicifolia IB4) RRID:AB_2314664] and antibodies against calcitonin gene-related peptide (CGRP; 1:10,000, Peninsula Laboratory, Cat# T-4032 RRID:AB_2313775), NPY (1:10,000, Peninsula Laboratory, Cat# T-4070.0050 RRID:AB_518504), pErk1/2 (1:300, Cell Signaling, Cat# 4370L RRID:AB_2297462), pS6 (1:300, Cell Signaling, Cat# 4858L RRID:AB_1031194) or RET [1:100, kind gift of Dr. E. Kramer, Center for Molecular Neurobiology, University Medical Center Hamburg-Eppendorf, Hamburg, Germany (Meka et al., [2015])] and corresponding secondary antibodies conjugated with fluorophores (Donkey Anti-Rabbit Alexa Fluor 647 conjugate, Cat# A31573 RRID:AB_162544; Donkey anti-Mouse Alexa Fluor 647 conjugate, Cat# A-31571 RRID:AB_2536181; Goat anti-Guinea Pig, Alexa Fluor 568 conjugate, Cat# A-11075 RRID:AB_2534119, Thermo Fisher Scientific, USA) or horse radish peroxidase (VECTASTAIN Elite ABC-Peroxidase Kit antibody, Vector Laboratories, CA, USA, Cat# PK-6101 RRID:AB_2336820). In the latter case, to reveal staining slides were treated with ABC and DAB staining kits (Vector Laboratories, CA, USA) according to the manufacturer's instructions. Sections were co-stained with guinea pig anti-PGP9.5 antibodies (Abcam Cat# ab10410 RRID:AB_297150) whenever possible. Nuclei were visualized using hematoxylin or DAPI dyes. Sections were mounted in Immu-Mount (Thermo Scientific, Cat#9990402) or Coverquick 2000 (Q PATH, Cat#05547530) mounting media and images were taken with fluorescent (Zeiss Imager M2 Axio, Carl Zeiss, Germany) or bright-field (Olympus BX-61, Olympus, Japan) microscopes. Neurons were counted for two sections per DRG and the number of cell profiles with nuclei positive for each specific marker was normalized to the total number of the neurons (identified by PGP9.5 staining or by morphology) per section. Ret-positive neurons were clustered by size using Matlab software R2014b (Mathworks, USA). Statistical analysis was performed using data from three to six individual animals. To obtain sufficient sample size, the data from animals treated with 20 and 25 mg/kg of BT13 were combined.

[8] = gabapentin single oral dose 100 mg/kg on day 12, 1 h before test

T2 sequence (P07949 29-1114): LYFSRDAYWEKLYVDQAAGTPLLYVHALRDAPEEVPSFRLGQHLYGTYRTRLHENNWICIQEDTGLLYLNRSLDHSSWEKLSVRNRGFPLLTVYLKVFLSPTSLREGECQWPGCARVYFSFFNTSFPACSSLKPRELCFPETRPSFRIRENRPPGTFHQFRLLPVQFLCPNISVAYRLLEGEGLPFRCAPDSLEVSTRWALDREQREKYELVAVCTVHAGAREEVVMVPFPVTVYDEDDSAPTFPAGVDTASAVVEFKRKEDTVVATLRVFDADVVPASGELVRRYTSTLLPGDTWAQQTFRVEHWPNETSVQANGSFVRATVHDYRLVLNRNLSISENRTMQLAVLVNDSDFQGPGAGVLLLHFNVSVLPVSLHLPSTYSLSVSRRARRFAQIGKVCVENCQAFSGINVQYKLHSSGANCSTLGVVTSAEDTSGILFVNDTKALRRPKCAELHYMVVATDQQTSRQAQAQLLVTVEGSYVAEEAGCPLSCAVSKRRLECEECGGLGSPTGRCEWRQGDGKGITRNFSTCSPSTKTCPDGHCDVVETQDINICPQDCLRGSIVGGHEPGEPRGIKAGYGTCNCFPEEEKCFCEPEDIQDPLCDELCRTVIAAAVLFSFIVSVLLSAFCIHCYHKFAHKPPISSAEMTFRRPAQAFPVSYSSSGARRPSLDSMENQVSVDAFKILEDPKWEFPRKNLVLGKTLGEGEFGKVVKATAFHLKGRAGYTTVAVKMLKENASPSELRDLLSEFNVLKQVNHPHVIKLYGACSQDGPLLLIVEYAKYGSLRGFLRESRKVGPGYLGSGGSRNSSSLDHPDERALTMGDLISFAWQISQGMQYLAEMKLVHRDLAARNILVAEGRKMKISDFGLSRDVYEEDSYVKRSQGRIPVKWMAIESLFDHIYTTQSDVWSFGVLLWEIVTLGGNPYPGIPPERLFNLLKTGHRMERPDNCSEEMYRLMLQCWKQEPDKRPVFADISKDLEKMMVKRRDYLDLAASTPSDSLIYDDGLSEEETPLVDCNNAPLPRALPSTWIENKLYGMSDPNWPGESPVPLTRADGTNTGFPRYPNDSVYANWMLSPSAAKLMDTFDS

## COc1cc(CC(C)N)c(OC)cc1I (racemic) [(±)DOI]
[1]; Cat. No. 1003
  IC50: 0.46 nM
[1]; Cat. No. 1003, read-out: Ki Ref
  Ki: 0.42 nM

## O=c1cc(N2CCOCC2)oc2c(-c3ccccc3)cccc12 [LY294002, reference compound]
[2]
  effect of pre-treatment on BT13-stimulated neurite outgrowth: completely blocked
[2]; pre-treatment with LY294002 50 μM, BT13 100 ng/ml
  block of BT13-stimulated neurite outgrowth, branch points, mean difference: 22 ± 5
[2]; BT13 100 ng/ml
  block of BT13-stimulated neurite outgrowth, maximum length, mean difference: 100.7 ± 13 μm
  block of BT13-stimulated neurite outgrowth, total length, mean difference: 817 ± 207 μm

## COc1cccc(-c2cc(=O)c3ccccc3o2)c1N [PD98059, reference compound]
[2]
  effect of pre-treatment on BT13-stimulated neurite outgrowth: completely blocked
[2]; BT13 100 ng/ml
  block of BT13-stimulated neurite outgrowth, maximum length, mean difference: 78 ± 17 μm
  block of BT13-stimulated neurite outgrowth, total length, mean difference: 449 ± 113 μm

## COc1cc(OC)c(C(=O)CCCCN2CCC3(CC2)NC(=O)NC3=O)cc1NS(=O)(=O)c1ccc(C(F)(F)F)cc1 [RS 102221]
[3]; Cat. No. 0137
  IC50: 3 nM
[3]; Cat. No. 0137, read-out: Ki Ref
  Ki: 0.99 nM

## CN(C)S(=O)(=O)c1ccc2c(c1)/C(=C/c1cc3c([nH]1)CCCC3)C(=O)N2 [SU6656, reference compound]
[2]
  effect of pre-treatment on BT13-stimulated neurite outgrowth: completely blocked
[2]; BT13 100 ng/ml
  block of BT13-stimulated neurite outgrowth, maximum length, mean difference: 116 ± 53 μm
  block of BT13-stimulated neurite outgrowth, total length, mean difference: 1098 ± 343 μm

## NCC1(CC(=O)O)CCCCC1 [gabapentin, reference compound]
[4]; [8]
  contralateral PWT: 26 ± 0.0
  ipsilateral PWT: 24.2 ± 1.83

## Neurotensin
[5]
  IC50: 2.9 nM
[5]; read-out: Ki Ref
  Ki: 2.7 nM

B1: glial cell line-derived neurotrophic factor (protein, UniProt P39905 78-211, looked up)
Glial cell line-derived …: SPDKQMAVLPRRERNRQAAAANPENSRGKGRRGQRGKNRGCVLTAIHLNVTDLGLGYETKEELIFRYCSGSCDAAETTYDKILKNLSRNRRLVSDKVGQACCRPIAFDDDLSFLDDNLVYHILRKHSAKRCGCI
notes: GDNF family ligand protein from PeproTech
[6]
  efficacy, fold induction of luciferase above baseline: 84.9 fold and 50–100 fold
[6]; read-out: EC50, luciferase activation
  EC50: 1.2 nM

B2: artemin (protein, UniProt Q5T4W7 108-220, looked up)
Artemin: AGGPGSRARAAGARGCRLRSQLVPVRALGLGHRSDELVRFRFCSGSCRRARSPHDLSLASLLGAGALRPPPGSRPVSQPCCRPTRYEAVSFMDVNSTWRTVDRLSATACGCLG
notes: as for B1
[2]; CGRP-negative neurons, NGF 10 ng/ml, ARTN 30 ng/ml, BT13 100 ng/ml
  neurite initiation or extension: no effect
[2]; CGRP-positive neurons, ARTN 30 ng/ml
  neurite elongation significantly increased: not
[2]; CGRP-positive neurons, NGF 10 ng/ml, ARTN 30 ng/ml, BT13 100 ng/ml, overnight
  neurite initiation: significantly increased
[2]; NGF 10 ng/ml, ARTN 30 ng/ml, BT13 100 ng/ml
  proportion of DRG neurons that expressed CGRP in culture: did not alter
[7]; day 12 after SNL
  reduction in the number of RET-positive cells in DRGs after SNL: restored
[7]; size above 1,000 μm^2, vs contralateral
  number of large RET-positive neurons in lesioned DRGs: increased
[7]; size below 1,000 μm^2, vs contralateral
  number of small RET-positive neurons in lesioned DRGs: decreased
[4]; ARTN 0.5 mg/kg s.c. on days 1, 3, 5, 8, 10, 12, von Frey, day 12 post-surgery
  increase of ipsilateral paw withdrawal threshold (PWT): 2.6 times

From article PMC5478727, “A Novel Small Molecule GDNF Receptor RET Agonist, BT13, Promotes Neurite Growth from Sensory Neurons in Vitro and Attenuates Experimental Neuropathy in the Rat” (Frontiers in Pharmacology, 2017)
